Measured values: patent US20230085307A1, “PYRIDAZINONE COMPOUND AND HERBICIDE” (NISSAN CHEMICAL CORPORATION, priority 2019, published 2023)

tested on: rice flat sedge; experiment: Test Example 3: herbicidal effect by foliage application, Wagner pot (Table 18, symbol E); type: in vivo, rice flat sedge (Cyperus iria); conditions: 320 g/ha
In short: (§1)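 Plants were sown in alluvial soil held under 0.1–0.5 cm standing water and grown 14 days in a greenhouse at 25–30 °C. An emulsifiable formulation, water-diluted to the set dose, was then sprayed onto the foliage, and effects were scored three weeks later using previously defined criteria.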

Row | Structure (SMILES) | herbicidal effect on E (rice flat sedge), rating 0-5
1 | Cc1nn(C)c(=O)c(-c2c(-c3ccc4c(c3)CCO4)sc3ccccc23)c1O [1-101] | 5 (Herbicidal rate of 90% or more (almost completely withered))
2 | CCCC(=O)Oc1c(C)nn(C)c(=O)c1-c1c(-c2ccc3c(c2)CCO3)sc2ccccc12 [1-102] | 5 (Herbicidal rate of 90% or more (almost completely withered))

tested on: blackgrass; experiment: Test Example 5: herbicidal effect by foliage application, plastic box (Table 20, symbol J); type: in vivo, blackgrass (Alopecurus myosuroides); conditions: foliage application, AAH 320 g/ha, three weeks after application
In short: (§2)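 Sow seeds spot-wise in sterilized diluvial soil; cover with ~1.5 cm soil. Grow 14 days in greenhouse, 25° C. to 30° C. Spray foliage with emulsion diluted to predetermined amount. Rate effect after 3 weeks.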

Row | Structure (SMILES) | J: blackgrass, herbicidal effect
3 | Cc1nn(C)c(=O)c(-c2c(-c3ccc4c(c3)CCO4)sc3ccccc23)c1O [1-101] | 4 (Herbicidal rate of 70% or more and less than 90%)
4 | CCCC(=O)Oc1c(C)nn(C)c(=O)c1-c1c(-c2ccc3c(c2)CCO3)sc2ccccc12 [1-102] | 0 (Herbicidal rate of 5% or less (almost no effect))

tested on: redroot pigweed; experiment: Test Example 4: herbicidal effect by soil treatment (Table 19, symbol N); type: in vivo, redroot pigweed (Amaranthus retroflexus); conditions: amount of applied herbicide 320 g/ha
In short: (§3)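 Applied as a water-diluted emulsion, the compound was sprayed onto soil covering newly sown seeds. Evaluation came three weeks after application, in a greenhouse held at 25° C. to 30° C.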

Row | Structure (SMILES) | herbicidal effect rating, N: redroot pigweed
5 | Cc1nn(C)c(=O)c(-c2c(-c3ccc4c(c3)CCO4)sc3ccccc23)c1O [1-101] | 4 (Herbicidal rate of 70% or more and less than 90%)
6 | CCCC(=O)Oc1c(C)nn(C)c(=O)c1-c1c(-c2ccc3c(c2)CCO3)sc2ccccc12 [1-102] | 4 (Herbicidal rate of 70% or more and less than 90%)

tested on: Japanese bulrush; experiment: Test Example 1: herbicidal activity, application before weed generation under submerged conditions (Table 16, symbol B); type: in vivo, Japanese bulrush (Schoenoplectus juncoides); conditions: 320 g/ha applied herbicide
In short: (§4)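 Alluvial soil was flooded to 4 cm depth, weed seeds were sown mixed and 2.5-leaf rice seedlings were transplanted. On sowing day, the compound's emulsion, diluted in water to a set dose, was applied to the water surface. Plants grew at 25–30 °C and were scored 0–5 after three weeks.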

Row | Structure (SMILES) | Herbicidal effect on B: Japanese bulrush (grade 0-5)
7 | Cc1nn(C)c(=O)c(-c2c(-c3ccc4c(c3)CCO4)sc3ccccc23)c1O [1-101] | 5 (Herbicidal rate of 90% or more (almost completely withered))
8 | CCCC(=O)Oc1c(C)nn(C)c(=O)c1-c1c(-c2ccc3c(c2)CCO3)sc2ccccc12 [1-102] | 5 (Herbicidal rate of 90% or more (almost completely withered))

tested on: windgrass; experiment: Test Example 4: herbicidal effect by soil treatment (Table 19, symbol L); type: in vivo, windgrass (Apera spica-venti); conditions: amount of applied herbicide 320 g/ha
In short: as §3

Row | Structure (SMILES) | herbicidal effect rating, L: windgrass
9 | Cc1nn(C)c(=O)c(-c2c(-c3ccc4c(c3)CCO4)sc3ccccc23)c1O [1-101] | 4 (Herbicidal rate of 70% or more and less than 90%)
10 | CCCC(=O)Oc1c(C)nn(C)c(=O)c1-c1c(-c2ccc3c(c2)CCO3)sc2ccccc12 [1-102] | 0 (Herbicidal rate of 5% or less (almost no effect))

tested on: southern crabgrass; experiment: Test Example 5: herbicidal effect by foliage application, plastic box (Table 20, symbol F); type: in vivo, southern crabgrass (Digitaria ciliaris); conditions: foliage application, AAH 320 g/ha, three weeks after application
In short: as §2

Row | Structure (SMILES) | F: southern crabgrass, herbicidal effect
11 | Cc1nn(C)c(=O)c(-c2c(-c3ccc4c(c3)CCO4)sc3ccccc23)c1O [1-101] | 5 (Herbicidal rate of 90% or more (almost completely withered))
12 | CCCC(=O)Oc1c(C)nn(C)c(=O)c1-c1c(-c2ccc3c(c2)CCO3)sc2ccccc12 [1-102] | 4 (Herbicidal rate of 70% or more and less than 90%)

tested on: barnyard grass; experiment: Test Example 3: herbicidal effect by foliage application, Wagner pot (Table 18, symbol H); type: in vivo, barnyard grass (Echinochloa crus-galli); conditions: 320 g/ha
In short: as §1

Row | Structure (SMILES) | herbicidal effect on H (barnyard grass), rating 0-5
13 | Cc1nn(C)c(=O)c(-c2c(-c3ccc4c(c3)CCO4)sc3ccccc23)c1O [1-101] | 5 (Herbicidal rate of 90% or more (almost completely withered))
14 | CCCC(=O)Oc1c(C)nn(C)c(=O)c1-c1c(-c2ccc3c(c2)CCO3)sc2ccccc12 [1-102] | 4 (Herbicidal rate of 70% or more and less than 90%)

tested on: false cleavers; experiment: Test Example 4: herbicidal effect by soil treatment (Table 19, symbol Q); type: in vivo, false cleavers (Galium spurium); conditions: amount of applied herbicide 320 g/ha
In short: as §3

Row | Structure (SMILES) | herbicidal effect rating, Q: false cleavers
15 | Cc1nn(C)c(=O)c(-c2c(-c3ccc4c(c3)CCO4)sc3ccccc23)c1O [1-101] | 3 (Herbicidal rate of 40% or more and less than 70%)
16 | CCCC(=O)Oc1c(C)nn(C)c(=O)c1-c1c(-c2ccc3c(c2)CCO3)sc2ccccc12 [1-102] | 0 (Herbicidal rate of 5% or less (almost no effect))

tested on: Chinese sprangletop; experiment: Test Example 3: herbicidal effect by foliage application, Wagner pot (Table 18, symbol D); type: in vivo, chinese sprangletop (Leptochloa chinensis); conditions: 320 g/ha
In short: as §1

Row | Structure (SMILES) | herbicidal effect on D (Chinese sprangletop), rating 0-5
17 | Cc1nn(C)c(=O)c(-c2c(-c3ccc4c(c3)CCO4)sc3ccccc23)c1O [1-101] | 5 (Herbicidal rate of 90% or more (almost completely withered))
18 | CCCC(=O)Oc1c(C)nn(C)c(=O)c1-c1c(-c2ccc3c(c2)CCO3)sc2ccccc12 [1-102] | 3 (Herbicidal rate of 40% or more and less than 70%)

tested on: late watergrass; experiment: Test Example 1: herbicidal activity, application before weed generation under submerged conditions (Table 16, symbol A); type: in vivo, late watergrass (Echinochloa oryzicola); conditions: 320 g/ha applied herbicide
In short: as §4

Row | Structure (SMILES) | Herbicidal effect on A: late watergrass (grade 0-5)
19 | Cc1nn(C)c(=O)c(-c2c(-c3ccc4c(c3)CCO4)sc3ccccc23)c1O [1-101] | 4 (Herbicidal rate of 70% or more and less than 90%)
20 | CCCC(=O)Oc1c(C)nn(C)c(=O)c1-c1c(-c2ccc3c(c2)CCO3)sc2ccccc12 [1-102] | 4 (Herbicidal rate of 70% or more and less than 90%)

tested on: Italian ryegrass; experiment: Test Example 4: herbicidal effect by soil treatment (Table 19, symbol K); type: in vivo, Italian ryegrass (Lolium multiflorum); conditions: amount of applied herbicide 320 g/ha
In short: as §3

Row | Structure (SMILES) | herbicidal effect rating, K: Italian ryegrass
21 | Cc1nn(C)c(=O)c(-c2c(-c3ccc4c(c3)CCO4)sc3ccccc23)c1O [1-101] | 4 (Herbicidal rate of 70% or more and less than 90%)
22 | CCCC(=O)Oc1c(C)nn(C)c(=O)c1-c1c(-c2ccc3c(c2)CCO3)sc2ccccc12 [1-102] | 3 (Herbicidal rate of 40% or more and less than 70%)

tested on: barnyard grass; experiment: Test Example 5: herbicidal effect by foliage application, plastic box (Table 20, symbol H); type: in vivo, barnyard grass (Echinochloa crus-galli); conditions: foliage application, AAH 320 g/ha, three weeks after application
In short: as §2

Row | Structure (SMILES) | H: barnyard grass, herbicidal effect
23 | Cc1nn(C)c(=O)c(-c2c(-c3ccc4c(c3)CCO4)sc3ccccc23)c1O [1-101] | 4 (Herbicidal rate of 70% or more and less than 90%)
24 | CCCC(=O)Oc1c(C)nn(C)c(=O)c1-c1c(-c2ccc3c(c2)CCO3)sc2ccccc12 [1-102] | 3 (Herbicidal rate of 40% or more and less than 70%)

tested on: green foxtail; experiment: Test Example 5: herbicidal effect by foliage application, plastic box (Table 20, symbol G); type: in vivo, green foxtail (Setaria viridis); conditions: foliage application, AAH 320 g/ha, three weeks after application
In short: as §2

Row | Structure (SMILES) | G: green foxtail, herbicidal effect
25 | Cc1nn(C)c(=O)c(-c2c(-c3ccc4c(c3)CCO4)sc3ccccc23)c1O [1-101] | 5 (Herbicidal rate of 90% or more (almost completely withered))
26 | CCCC(=O)Oc1c(C)nn(C)c(=O)c1-c1c(-c2ccc3c(c2)CCO3)sc2ccccc12 [1-102] | 5 (Herbicidal rate of 90% or more (almost completely withered))

tested on: oval-leafed pondweed; experiment: Test Example 2: herbicidal activity, application during weed generation under submerged conditions (Table 17, symbol C); type: in vivo, oval-leafed pondweed (Monochoria vaginalis); conditions: AAH 320 g/ha; application during weed generation, submerged conditions
In short: (§5)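 Steps: fill Wagner pots with alluvial soil; add water to give 4 cm depth; sow the species mixed; grow under glass at 25–30° C.; at 1–2 leaves apply water-diluted emulsion formulation to the water surface at a fixed herbicide amount; score after 3 weeks.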

Row | Structure (SMILES) | herbicidal effect rating, C: oval-leafed pondweed
27 | Cc1nn(C)c(=O)c(-c2c(-c3ccc4c(c3)CCO4)sc3ccccc23)c1O [1-101] | 5 (Herbicidal rate of 90% or more (almost completely withered))
28 | CCCC(=O)Oc1c(C)nn(C)c(=O)c1-c1c(-c2ccc3c(c2)CCO3)sc2ccccc12 [1-102] | 5 (Herbicidal rate of 90% or more (almost completely withered))

tested on: late watergrass; experiment: Test Example 2: herbicidal activity, application during weed generation under submerged conditions (Table 17, symbol A); type: in vivo, late watergrass (Echinochloa oryzicola); conditions: AAH 320 g/ha; application during weed generation, submerged conditions
In short: as §5

Row | Structure (SMILES) | herbicidal effect rating, A: late watergrass
29 | Cc1nn(C)c(=O)c(-c2c(-c3ccc4c(c3)CCO4)sc3ccccc23)c1O [1-101] | 3 (Herbicidal rate of 40% or more and less than 70%)
30 | CCCC(=O)Oc1c(C)nn(C)c(=O)c1-c1c(-c2ccc3c(c2)CCO3)sc2ccccc12 [1-102] | 3 (Herbicidal rate of 40% or more and less than 70%)

tested on: wild oat; experiment: Test Example 5: herbicidal effect by foliage application, plastic box (Table 20, symbol I); type: in vivo, wild oat (Avena fatua); conditions: foliage application, AAH 320 g/ha, three weeks after application
In short: as §2

Row | Structure (SMILES) | I: wild oat, herbicidal effect
31 | Cc1nn(C)c(=O)c(-c2c(-c3ccc4c(c3)CCO4)sc3ccccc23)c1O [1-101] | 3 (Herbicidal rate of 40% or more and less than 70%)
32 | CCCC(=O)Oc1c(C)nn(C)c(=O)c1-c1c(-c2ccc3c(c2)CCO3)sc2ccccc12 [1-102] | 1 (Herbicidal rate of 5% or more and less than 20%)

tested on: persian speedwell; experiment: Test Example 5: herbicidal effect by foliage application, plastic box (Table 20, symbol R); type: in vivo, Persian speedwell (Veronica persica); conditions: foliage application, AAH 320 g/ha, three weeks after application
In short: as §2

Row | Structure (SMILES) | R: persian speedwell, herbicidal effect
33 | Cc1nn(C)c(=O)c(-c2c(-c3ccc4c(c3)CCO4)sc3ccccc23)c1O [1-101] | 5 (Herbicidal rate of 90% or more (almost completely withered))
34 | CCCC(=O)Oc1c(C)nn(C)c(=O)c1-c1c(-c2ccc3c(c2)CCO3)sc2ccccc12 [1-102] | 5 (Herbicidal rate of 90% or more (almost completely withered))
